Assay results published in ChEMBL document CHEMBL1141684, “Synthesis and evaluation of cis-3,4-disubstituted piperidines as potent CC chemokine receptor 2 (CCR2) antagonists” (Bioorg Med Chem Lett, 2008).

How the values were obtained:
[1] = target: T1, C-C chemokine receptor type 2 (Homo sapiens, UniProt P41597); experiment: Displacement of radiolabeled MCP1 from CCR2 in human PBMC by millipore filter plate assay
Target sequence in this assay (P41597 whole entry): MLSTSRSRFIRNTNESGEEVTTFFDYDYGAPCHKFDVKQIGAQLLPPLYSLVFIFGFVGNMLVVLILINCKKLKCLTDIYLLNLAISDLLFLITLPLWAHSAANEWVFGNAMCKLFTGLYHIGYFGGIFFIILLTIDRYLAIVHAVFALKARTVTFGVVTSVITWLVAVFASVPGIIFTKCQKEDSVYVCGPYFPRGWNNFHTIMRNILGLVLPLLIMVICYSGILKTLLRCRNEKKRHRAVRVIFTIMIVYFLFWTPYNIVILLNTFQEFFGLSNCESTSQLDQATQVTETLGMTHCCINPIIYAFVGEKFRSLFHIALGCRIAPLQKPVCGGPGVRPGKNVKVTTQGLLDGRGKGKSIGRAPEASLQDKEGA

[2] = target: T1, C-C chemokine receptor type 2; experiment: Antagonist activity at CCR2 in human PBMC assessed as MCP1-induced calcium flux by fluorescence-imaging plate assay; assay type: functional
Target sequence in this assay (P41597 whole entry): as above

[3] = target: T2, C-C chemokine receptor type 3 (Homo sapiens) (UniProt P51677); experiment: Inhibition of CCR3 at 10 uM
T2 sequence (whole entry): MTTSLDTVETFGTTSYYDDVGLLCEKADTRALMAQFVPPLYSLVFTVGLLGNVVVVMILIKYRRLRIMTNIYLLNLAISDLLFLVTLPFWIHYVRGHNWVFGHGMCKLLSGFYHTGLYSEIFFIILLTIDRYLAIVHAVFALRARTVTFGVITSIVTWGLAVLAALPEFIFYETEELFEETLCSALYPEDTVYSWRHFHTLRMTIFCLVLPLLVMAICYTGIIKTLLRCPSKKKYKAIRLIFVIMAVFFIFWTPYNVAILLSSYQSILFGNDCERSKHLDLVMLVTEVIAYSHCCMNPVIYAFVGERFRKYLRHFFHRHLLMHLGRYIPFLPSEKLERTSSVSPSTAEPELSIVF

[4] = target: T1, C-C chemokine receptor type 2; experiment: Binding affinity to wild type CCR2
Target sequence in this assay (P41597 whole entry): as the sequence (P41597 whole entry) above

[5] = target: C-C chemokine receptor type 2 (Homo sapiens, UniProt P41597, E291A); experiment: Binding affinity to CCR2 E291A mutant
Sequence of C-C chemokine receptor type 2 (Homo sapiens, UniProt P41597, E291A) (P41597 whole entry E291A): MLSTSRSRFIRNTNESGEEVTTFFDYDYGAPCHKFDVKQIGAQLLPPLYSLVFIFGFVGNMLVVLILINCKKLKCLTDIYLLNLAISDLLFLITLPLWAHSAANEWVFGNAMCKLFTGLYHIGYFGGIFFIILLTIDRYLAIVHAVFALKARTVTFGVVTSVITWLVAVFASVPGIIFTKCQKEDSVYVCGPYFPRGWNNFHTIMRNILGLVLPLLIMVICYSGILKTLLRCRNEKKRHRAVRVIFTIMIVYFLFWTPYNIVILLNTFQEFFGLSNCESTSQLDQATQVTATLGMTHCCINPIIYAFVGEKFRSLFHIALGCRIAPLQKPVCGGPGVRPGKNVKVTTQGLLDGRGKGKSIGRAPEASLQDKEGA

[6] = target: T1, C-C chemokine receptor type 2; experiment: Displacement of radiolabeled MCP1 from CCR2 in human PBMC at 1 uM by millipore filter plate assay
Target sequence in this assay (P41597 whole entry, looked up): as the sequence (P41597 whole entry) above

Row | Structure (SMILES) | IC50 [1] [nM] | IC50 [2] [nM] | inhibition [3] [%] | IC50 [4] [nM] | IC50 [5] [nM] | Activity [6] [%]
1 | CCCN1CCC(NCc2ccc(SC)cc2)C(NC(=O)CNC(=O)c2cc(C(F)(F)F)ccc2NC(=O)N2CCCC2)C1 (racemic) | 8.7 | 21 | 38.2 |  |  | 
2 | CSc1ccc(C(=O)NC2CCNCC2NC(=O)CNC(=O)c2cc(C(F)(F)F)ccc2N)cc1 (racemic) | 28 | 75 | 19.7 | 12 | 381 | 
3 | CCSc1ccc(CNC2CCNCC2NC(=O)CNC(=O)c2cc(C(F)(F)F)ccc2N)cc1 (racemic) | 123 |  |  |  |  | 
4 | CSc1ccc(CNC2CCNCC2NC(=O)CNC(=O)c2cccc(C(F)(F)F)c2)cc1 (racemic) | 97 | 510 | 46 |  |  | 
5 | CSc1ccc(CNC2CCN(C)CC2NC(=O)CNC(=O)c2cc(C(F)(F)F)ccc2N)cc1 (racemic) | 0.95 | 5 | 56 |  |  | 
6 | CSc1ccc(C(=O)NC2CCN(C)CC2NC(=O)CNC(=O)c2cc(C(F)(F)F)ccc2N)cc1 (racemic) | 1.8 | 2 | 43.1 |  |  | 
7 | CCCN1CCC(NC(=O)c2ccc(SC)cc2)C(NC(=O)CNC(=O)c2cc(N)cc(C(F)(F)F)c2)C1 (racemic) | 6.2 | 6 |  |  |  | 
8 | CCCN1CCC(NCc2ccc(SC)cc2)C(NC(=O)CNC(=O)c2cc(N)cc(C(F)(F)F)c2)C1 (racemic) | 6.1 | 3 | 49.3 |  |  | 
9 | CSc1ccc(CNC2CCCCC2NC(=O)CNC(=O)c2cc(C(F)(F)F)ccc2N)cc1 (racemic) | 1180 |  |  |  |  | 
10 | CSc1ccc(CNC2CCNCC2NC(=O)CNC(=O)c2cc(C(F)(F)F)ccc2N)cc1 (racemic) | 6.3 | 7 | 47.3 | 6.1 | 749 | 
11 | Nc1ccc(C(F)(F)F)cc1C(=O)NCC(=O)NC1CNCCC1NCc1ccc(Cl)cc1 (racemic) | 21.5 | 19 | 90 |  |  | 
12 | CCCN1CCC(NCc2ccc(SC)cc2)C(NC(=O)CNC(=O)c2cc(C(F)(F)F)ccc2N)C1 (racemic) | 3.4 | 2 | 47 |  |  | 
13 | CCCN1CCC(NCc2ccc(SC)cc2)C(NC(=O)CNC(=O)c2cc(C(F)(F)F)ccc2NC(=O)NC)C1 (racemic) | 3.8 | 3 | 5.5 |  |  | 
14 | CSc1ccc(CNC2CCN(C(C)=O)CC2NC(=O)CNC(=O)c2cccc(C(F)(F)F)c2)cc1 (racemic) | 463 |  |  |  |  | 
15 | CCCCN1CCC(NCc2ccc(SC)cc2)C(NC(=O)CNC(=O)c2cc(C(F)(F)F)ccc2N)C1 (racemic) | 7.9 | 13 | 75 |  |  | 
16 | CCCCN1CCC(NC(=O)c2ccc(SC)cc2)C(NC(=O)CNC(=O)c2cc(C(F)(F)F)ccc2N)C1 (racemic) | 4.3 | 13 | 77 |  |  | 
17 | CSc1ccc(C(=O)NC2CCN(C(=O)OC(C)(C)C)CC2NC(=O)CNC(=O)c2cc(C(F)(F)F)ccc2NC(=O)OC(C)(C)C)cc1 (racemic) |  |  |  |  |  | 0
18 | CSc1ccc(CNC2CCN(C(=O)OC(C)(C)C)CC2NC(=O)CNC(=O)c2cccc(C(F)(F)F)c2)cc1 (racemic) |  |  |  |  |  | 0
